Test results published in PMC3229538, “Inhibition of G Protein-Activated Inwardly Rectifying K^+ Channels by Different Classes of Antidepressants” (PLoS ONE, 2011).
Where a name gives a salt, the structure may show the parent alone. Read-outs that look alike come from different tables or passages of the source.

What was measured:
GIRK1/2 channels = molecular target: T1, GIRK1/2 channels (Mus musculus, UniProt P48542+P63250); experiment: Inhibition of basal GIRK currents, Xenopus oocyte expression assay, two-electrode voltage clamp; type: cell-based; conditions: for inhibition at 100 µM: read-out: % inhibition of basal GIRK currents
T1 construct: expressed in transfected cells; host or cells: Xenopus laevis oocytes injected with in vitro transcribed mRNA
T1 sequence (P63250 1-501): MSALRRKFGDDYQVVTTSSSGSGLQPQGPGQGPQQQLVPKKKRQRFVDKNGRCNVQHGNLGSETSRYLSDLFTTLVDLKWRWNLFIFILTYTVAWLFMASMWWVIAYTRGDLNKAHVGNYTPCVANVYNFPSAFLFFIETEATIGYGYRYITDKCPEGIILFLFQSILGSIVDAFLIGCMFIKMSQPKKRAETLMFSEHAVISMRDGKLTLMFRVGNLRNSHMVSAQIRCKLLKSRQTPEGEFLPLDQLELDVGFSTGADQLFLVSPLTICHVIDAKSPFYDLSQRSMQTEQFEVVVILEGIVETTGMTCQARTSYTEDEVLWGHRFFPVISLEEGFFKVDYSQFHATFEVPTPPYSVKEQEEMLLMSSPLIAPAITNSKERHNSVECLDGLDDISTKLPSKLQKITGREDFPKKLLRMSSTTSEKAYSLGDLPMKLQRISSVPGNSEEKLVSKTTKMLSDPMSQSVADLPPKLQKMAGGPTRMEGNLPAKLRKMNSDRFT
T1 sequence (P48542 1-425): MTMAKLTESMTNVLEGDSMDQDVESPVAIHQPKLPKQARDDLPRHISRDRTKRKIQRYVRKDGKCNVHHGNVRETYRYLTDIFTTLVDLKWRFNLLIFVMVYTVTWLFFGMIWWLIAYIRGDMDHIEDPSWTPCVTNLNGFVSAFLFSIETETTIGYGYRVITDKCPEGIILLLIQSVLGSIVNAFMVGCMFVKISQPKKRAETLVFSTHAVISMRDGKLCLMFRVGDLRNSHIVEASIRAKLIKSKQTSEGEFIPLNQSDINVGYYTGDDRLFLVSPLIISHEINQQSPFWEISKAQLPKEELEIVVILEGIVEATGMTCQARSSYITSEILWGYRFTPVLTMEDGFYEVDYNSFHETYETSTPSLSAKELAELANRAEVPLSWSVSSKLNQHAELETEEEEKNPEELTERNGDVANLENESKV
Protocol: (§1) Microelectrodes were filled with 3 M KCl. […] The data are expressed as mean ± SEM, and n is the number of oocytes tested. The statistical analysis of differences between groups was performed using paired t-test, one-way analysis of variance (ANOVA), or two-way ANOVA followed by the Tukey-Kramer post hoc test. Values of P<0.05 were considered statistically significant.

GIRK1/4 channels = molecular target: T2, GIRK1/4 channels (Mus musculus, UniProt P48545+P63250); experiment: as above; type: cell-based; conditions: for inhibition at 100 µM: read-out: % inhibition of basal GIRK currents
T2 construct: expressed in transfected cells; host or cells: Xenopus laevis oocytes injected with in vitro transcribed mRNA
T2 sequence (P63250 1-501): T1 sequence (P63250 1-501)
T2 sequence (P48545 1-419): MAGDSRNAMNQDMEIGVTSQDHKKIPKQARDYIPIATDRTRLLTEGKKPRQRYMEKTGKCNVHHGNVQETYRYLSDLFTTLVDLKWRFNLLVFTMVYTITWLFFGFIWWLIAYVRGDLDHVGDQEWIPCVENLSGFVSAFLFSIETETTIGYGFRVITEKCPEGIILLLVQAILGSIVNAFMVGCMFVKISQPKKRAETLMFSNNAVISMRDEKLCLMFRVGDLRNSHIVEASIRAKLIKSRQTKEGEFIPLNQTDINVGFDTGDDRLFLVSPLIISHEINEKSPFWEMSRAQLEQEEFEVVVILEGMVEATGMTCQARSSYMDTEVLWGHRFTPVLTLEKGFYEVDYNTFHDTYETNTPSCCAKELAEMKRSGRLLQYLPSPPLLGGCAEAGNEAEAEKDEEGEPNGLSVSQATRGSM
Protocol: as §1

[1] = cited from earlier work
Kir2.1 channels = system: T3, Kir2.1 channels; experiment: Effect on Kir2.1 currents, Xenopus oocyte expression assay; type: cell-based, mouse; conditions: 300 µM, hK solution
T3 construct: expressed in transfected cells; host or cells: Xenopus laevis oocytes injected with in vitro transcribed mRNA
Protocol: Microelectrodes were filled with 3 M KCl. […]. The data are expressed as mean ± SEM, and n is the number of oocytes tested. The statistical analysis of differences between groups was performed using paired t-test, one-way analysis of variance (ANOVA), or two-way ANOVA followed by the Tukey-Kramer post hoc test. Values of P<0.05 were considered statistically significant.

[2] = system: intrinsic oocyte channels; experiment: Current responses in uninjected Xenopus oocytes; type: cell-based, Xenopus laevis
Protocol: as §1, with “Louis, MO, USA). […] Microelectrodes” for “Microelectrodes”, “KCl. […] For the analysis of concentration-response relationships, the data were fitted to a standard logistic equation [51] using KaleidaGraph (Synergy Software, Reading, PA, USA).” for “KCl.”

[3] = pKa of secondary amine group and protonation; type: physicochemical; conditions: pH 7.4
[4] = ref Data Sheets of Pfizer and Eli Lilly and Company; cited from earlier work
[5] = molecular target: T4, GIRK1/2 channels activated by GTPγS (Mus musculus, UniProt P48542+P63250); experiment: Inhibition of total GIRK currents (GTPγS-induced and basal) in GTPγS-injected oocytes; type: cell-based; conditions: injection of 13.8 nl of 100 mM into oocyte
T4 construct: expressed in transfected cells; host or cells: Xenopus laevis oocytes injected with in vitro transcribed mRNA
T4 sequence (P63250 1-501): T1 sequence (P63250 1-501)
T4 sequence (P48542 1-425): T1 sequence (P48542 1-425)
Source text: Microelectrodes were filled with 3 M KCl. […] GIRK channels are activated by various Gi/o-protein-coupled receptors through the direct action of G-protein βγ subunits released from the heterotrimeric G-protein complex, [33].

GIRK channels = conditions: cited from earlier work
[6] = cited from earlier work; remark: listed apart in the source
[7] = molecular target: GIRK1/2 channels activated by ethanol (Mus musculus, UniProt P48542+P63250); conditions: 100 mM
Source text: These plasmids were linearized by digestion with the appropriate enzymes as described previously [45], [46]. The specific mRNAs were synthesized in vitro using the mMESSAGE mMACHINE™ In Vitro Transcription Kit (Ambion, Austin, TX, USA).

[8] = 100 µM, K4 solution 4 mM K+, −10 mV
[9] = basal GIRK currents, −70 mV, hK solution 96 mM K+
[10] = concentration reducing basal GIRK currents by 25%
[11] = concentration reducing basal GIRK currents by 50%
[12] = read-out: % max (percentage inhibition of basal GIRK currents at the highest concentration tested)

SMILES: CCc1nn(CCCN2CCN(c3cccc(Cl)c3)CC2)c(=O)n1CCOc1ccccc1 [nefazodone, nefazodone hydrochloride]
- inhibition at 100 µM (GIRK1/2 channels; 100 µM, −70 mV, hK solution): 35.9 ± 3.5%
- inhibition at 100 µM (GIRK1/4 channels; 100 µM, −70 mV, hK solution): 30.3 ± 3.4%
- concentrations in cases of overdose [1]: ≤ 11.7 µM

SMILES: CN[C@H]1CC[C@@H](c2ccc(Cl)c(Cl)c2)c2ccccc21 [sertraline, Sertraline hydrochloride]
- % change of the Ba2+-sensitive current components (Kir2.1 channels): less than 2%
- current response [2, 8]: 3.0±0.9 nA
- current response ([2]; 300 µM, hK solution, −70 mV): 2.0±2.0 nA
- protonated form [3]: approximately 96.9%
- pKa of secondary amine group [4]: 8.9

SMILES: Nc1nc2c(ncn2[C@@H]2O[C@H](COP(=O)([O-])OP(=O)([O-])OP([O-])([O-])=S)[C@@H](O)[C@H]2O)c(=O)[nH]1.[Li+].[Li+].[Li+].[Li+] [GTPγS, Li4-guanosine-5′-O-(3-thiotriphosphate)]
- increase of inward currents, steady-state level [5]: 516.0±123.7 nA

SMILES: CCN(CC)C(=O)C1(c2ccccc2)CC1CN (stereo not drawn) [milnacipran]
- effects on GIRK channels (GIRK channels): little effects

SMILES: CN1CCN2c3ncccc3Cc3ccccc3C2C1 (stereo not drawn) [mirtazapine, Mirtazapine]
- inhibition at 100 µM (GIRK1/2 channels; 100 µM, −70 mV, hK solution): 17.6 ± 3.5%
- inhibition at 100 µM (GIRK1/4 channels; 100 µM, −70 mV, hK solution): 12.1 ± 2.4%
- brain levels compared with blood levels [6]: 3.2 fold

SMILES: [Ba+2] [Ba^2+]
- current response ([2]; 3 mM, K4 solution 4 mM K+, −10 mV): 7.6±1.3 nA
- current response in GTPγS-injected uninjected oocytes ([2]; 3 mM, after GTPγS injection): 3.9±2.1 nA
- current response ([2]; 3 mM, hK solution, −70 mV): 3.1±1.7 nA

SMILES: CN1CCN2c3ccccc3Cc3ccccc3C2C1 (stereo not drawn) [mianserin, mianserin hydrochloride]
- inhibition at 100 µM (GIRK1/2 channels; 100 µM, −70 mV, hK solution): 24.1 ± 5.5%
- inhibition at 100 µM (GIRK1/4 channels; 100 µM, −70 mV, hK solution): 18.8 ± 1.3%
- concentrations in cases of overdose [1]: ≤ 18.9 µM
- brain levels compared with blood levels [6]: 12.1 fold

SMILES: CCO [ethanol, Ethanol]
- induced GIRK currents [7]: 344.2±40.3 nA

SMILES: CNCC[C@H](Oc1cccc2ccccc12)c1cccs1 [duloxetine, duloxetine hydrochloride]
- effect on outward GIRK currents (GIRK1/2 channels; 30 µM, K4 solution 4 mM K+, holding potential −10 mV): reversibly reduced
- voltage dependence of GIRK current inhibition at the end of the voltage pulses (GIRK1/2 channels; 30 µM, −120 to −40 mV): voltage-dependent
- n H (Hill coefficient) (GIRK1/2 channels; basal GIRK currents): 0.94±0.06
- EC50 (GIRK1/2 channels; [9]): 14.9 ± 0.4 µM
- IC25 (GIRK1/2 channels; [10]): 6.6 ± 0.6 µM
- IC50 (GIRK1/2 channels; [11]): 28.3 ± 2.5 µM
- effect of extracellular pH on percentage inhibition of GIRK channels (GIRK1/2 channels; extracellular pH 7.4 and 9.0): not significantly affected
- inhibition at 100 µM (GIRK1/2 channels): 65.6 ± 1%
- inhibition at 300 µM (GIRK1/2 channels; [12]): 72.2 ± 1.1%
- n H (Hill coefficient) (GIRK1/4 channels; basal GIRK currents): 0.97±0.07
- EC50 (GIRK1/4 channels; [9]): 17 ± 1.3 µM
- IC25 (GIRK1/4 channels; [10]): 12.6 ± 1.2 µM
- IC50 (GIRK1/4 channels; [11]): 124 ± 34.3 µM
- inhibition at 100 µM (GIRK1/4 channels): 49.7 ± 2.2%
- inhibition at 300 µM (GIRK1/4 channels; [12]): 54.1 ± 1.5%
- current response [2, 8]: 0±0 nA
- protonated form [3]: ~98.9%
- concentrations in cases of overdose [1]: ≤ 8.4 µM
- brain levels compared with blood levels [6]: 15 fold
- pKa of secondary amine group [4]: 9.34

SMILES: COc1ccc(C(CN(C)C)C2(O)CCCCC2)cc1 (stereo not drawn) [venlafaxine, Venlafaxine hydrochloride]
- inhibition at 100 µM (GIRK1/2 channels): 19.4 ± 4.6%
- inhibition at 100 µM (GIRK1/4 channels): 22.8 ± 3.2%
- concentrations in cases of overdose [1]: ≤ 302.8 µM
- brain levels compared with blood levels [6]: 4.9 fold
